Assay in all cases: In vitro HPPD activity assay, tolerance index
Holding throughout (settings): normalized on Arabidopsis wild-type HPPD

The subject of test [1] is Acidobacterium HPPD (SEQ ID NO: 30). The class given is biochemical, Acidobacterium capsulatum. As for the experimental part: (§1) The activity assay for HPPD is based on the analysis of homogentisic acid by reversed phase HPLC.
(§2) The assay mixture can contain 150 mM potassium phosphate buffer pH 7.0, 50 mM L-ascorbic acid, 100 μM Catalase (Sigma-Aldrich), 1 μM FeSO4 and 0.2 units of purified HPPD enzyme in a total volume of 505 μl. 1 unit is defined as the amount of enzyme that is required to produce 1 nmol of HGA per minute at 20° C.
(§3) The reaction is allowed to proceed for 45 min at room temperature. The reaction is stopped by the addition of 50 μl of 4.5 M phosphoric acid. The sample is filtered using a […] pore size PVDF filtration device.
(§4) 5 μl of the cleared sample is analyzed on an UPLC HSS T3 column (particle size 1.8 μm, dimensions 2.1×50 mm; Waters) by isocratic elution using 90% 20 mM NaH2PO4 pH 2.2, 10% methanol (v/v).
(§5) HGA is detected electrochemically at 750 mV (mode: DC; polarity: positive) and quantified by integrating peak areas (Empower software; Waters).
(§6) Inhibitors are dissolved in DMSO (dimethylsulfoxide) to a concentration of 0.5 mM. From this stock solution serial five-fold dilutions are prepared in DMSO, which are used in the assay. The respective inhibitor solution accounts for 1% of the assay volume. Thus, final inhibitor concentrations range from 5 μM to 320 pM, respectively. Activities are normalized by setting the uninhibited enzyme activity to 100%. IC50 values are calculated using non-linear regression.
(§7) Using methods which are described in the above examples or well known in the art, purified, recombinant wildtype HPPD enzymes are characterized with respect to their kinetic properties and sensitivity towards HPPD inhibiting herbicides. Apparent michaelis constants (Km) and maximal reaction velocities (Vmax) are calculated by non-linear regression with the software GraphPad Prism 5 (GraphPad Software, La Jolla, USA) using a substrate inhibition model. […] Weighted means (by standard error) of Km and IC50 values are calculated from at least three independent experiments. The Cheng-Prusoff equation for competitive inhibition (Cheng, Y. C.; Prusoff, W. H. Biochem Pharmacol 1973, 22, 3099-3108) is used to calculate dissociation constants (Ki).
(§8) Field performance of the HPPD enzyme, which is used as a herbicide tolerance trait may depend not only on its lack of sensitivity towards HPPD inhibiting herbicides but also on its activity. To assess the potential performance of a herbicide tolerance trait a tolerance index (TI) is calculated using the following formula: […]
(§9) Easy comparison and ranking of each trait is enabled by normalizing tolerance indexes on Arabidopsis wild-type HPPD.

Test [2] has as its system Scenedesmus HPPD (SEQ ID NO: 4). The class given is biochemical, Scenedesmus obliquus. The method, then: as §1, §2, §3, §4, §5, §6, §7, §8, §9
Test [3] concerns Geodermatophilus HPPD (SEQ ID NO: 32). Format: biochemical, Geodermatophilus obscurus. As for the experimental part:
as §1, §2, §3, §4, §5, §6, §7, §8, §9

For test [4], the system named is Nitritalea HPPD (SEQ ID NO: 14). The class given is biochemical, Nitritalea halalkaliphila. The method, then:
as §1, §2, §3, §4, §5, §6, §7, §8, §9

For test [5], the system named is Herpetosiphon HPPD (SEQ ID NO: 26). Format: biochemical, Herpetosiphon aurantiacus. As for the experimental part: as §1, §2, §3, §4, §5, §6, §7, §8, §9
Test [6] has as its system Belliella HPPD (SEQ ID NO: 12). Format: biochemical, Belliella baltica. As for the experimental part: as §1, §2, §3, §4, §5, §6, §7, §8, §9
The test system of test [7] is Pontibacter HPPD (SEQ ID NO: 16). Format: biochemical, Pontibacter sp. The method, then: as §1, §2, §3, §4, §5, §6, §7, §8, §9
In test [8] the test system is Microscilla HPPD (SEQ ID NO: 20). Format: biochemical, Microscilla marina. The method, then: as §1, §2, §3, §4, §5, §6, §7, §8, §9
The test system of test [9] is Algoriphagus HPPD (SEQ ID NO: 22). The class given is biochemical, Algoriphagus machipongonensis. As for the experimental part: as §1, §2, §3, §4, §5, §6, §7, §8, §9

Several values for one entry are separate records, joined by “and”; a condition that tells them apart may be missing. Equal entries are not always repeated.

For the compound `CS(=O)(=O)c1ccc(C(=O)C2C(=O)CCCC2=O)c([N+](=O)[O-])c1` [Inhibitor 2, 2-(4-methylsulfonyl-2-nitro-benzoyl)cyclohexane-1,3-dione], the “TI (normalized tolerance index)” value amounted to 0.6 in test [1]; 0.1 in test [2]; 0.7 in [3]; 0 in test [4]; 0.4 in [5]; 0.1 in test [6]. In addition, the “TI (normalized tolerance index)” value in test [7] was found to be 0.1; in test [8], 0.2.

For the compound `CN(c1c(Cl)ccc(C2=C(O)c3ncccc3C(C)(C)S2(=O)=O)c1Cl)S(C)(=O)=O` [Inhibitor 4, N-[2,6-dichloro-3-(8-hydroxy-5,5-dimethyl-6,6-dioxo-thiopyrano[4,3-b]pyridin-7-yl)phenyl]-N-methyl-methanesulfonamide], the “TI (normalized tolerance index)” value was 64 and 64.3 in test [1]; 132.5 in [9]; 16.4 in test [7]; 112.0 in test [8].

`CSc1c(Cl)cc(F)c(C(=O)Nc2nnnn2C)c1Cl` [Inhibitor 11, 2,4-dichloro-6-fluoro-3-methylsulfanyl-N-(1-methyltetrazol-5-yl)benzamide]: the “TI (normalized tolerance index)” value in test [1] came out at 0.1; in test [2], 0.3; in test [3], 0.2; in test [4], 0; in test [5], 0.2; in test [6] it was 0. In addition, the “TI (normalized tolerance index)” value in [7] is given as 0; in test [8], 0.1.

Values taken from patent US10619138B2, “Herbicide-resistant hydroxyphenylpyruvate dioxygenases” (BASF SE, priority 2013, dated 2020).
